In the supplement of paper PMC10307832:

Experiments:
Assay in all cases: relative viability (nuclei count vs DMSO), 5 days (fraction); higher = more cells survive
[1] = compound: CCN1CCC(CC1)N2C=C(N=N2)CNC3=CC4=C(C(=CN=C4C(=C3)Cl)C#N)NC5=CC(=C(C=C5)F)Cl [KIN001-266] + CS(=O)(=O)CCNCc1ccc(-c2ccc3ncnc(Nc4ccc(OCc5cccc(F)c5)c(Cl)c4)c3c2)o1 [Lapatinib] (partner 2 µM)
How it was run: (§1)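 Lung cancer cell lines in 1536-well plates were dosed by pin tool the day after seeding, either with one drug alone or with a fixed anchor-drug dose plus five library-drug doses (not always all listed) in √10 steps. After 5 days, cells were fixed and their nuclei stained in one step (final 0.05% Triton X-100, 1% formaldehyde, 1 ug/ml Hoechst), then counted on 4× images. Relative viability is the nuclei count in treated wells divided by that in vehicle wells. Values are medians of duplicate plates.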

[2] = compound: CCN1CCC(CC1)N2C=C(N=N2)CNC3=CC4=C(C(=CN=C4C(=C3)Cl)C#N)NC5=CC(=C(C=C5)F)Cl [KIN001-266] + C[C@@H](Oc1cc(-c2cnn(C3CCNCC3)c2)cnc1N)c1c(Cl)ccc(F)c1Cl [Crizotinib] (partner 1 µM)
How it was run: as §1

[3] = compound: CCN1CCC(CC1)N2C=C(N=N2)CNC3=CC4=C(C(=CN=C4C(=C3)Cl)C#N)NC5=CC(=C(C=C5)F)Cl [KIN001-266] + Cc1nc(Nc2ncc(C(=O)Nc3c(C)cccc3Cl)s2)cc(N2CCN(CCO)CC2)n1 [Dasatinib] (partner 0.075 µM)
How it was run: as §1

[4] = compound: CCN1CCC(CC1)N2C=C(N=N2)CNC3=CC4=C(C(=CN=C4C(=C3)Cl)C#N)NC5=CC(=C(C=C5)F)Cl [KIN001-266] + Nc1nc2[nH]cc(CCc3ccc(C(=O)N[C@@H](CCC(=O)O)C(=O)O)cc3)c2c(=O)[nH]1 [Pemetrexed] (partner 0.2 µM)
How it was run: as §1

Row | Cell Line | relative viability ([1]; first compound 0.08 µM) | relative viability ([1]; first compound 0.253 µM) | relative viability ([1]; first compound 0.8 µM) | relative viability ([1]; first compound 2.53 µM) | relative viability ([1]; first compound 8 µM) | relative viability ([2]; first compound 0.08 µM) | relative viability ([2]; first compound 0.253 µM) | relative viability ([2]; first compound 0.8 µM) | relative viability ([2]; first compound 2.53 µM) | relative viability ([2]; first compound 8 µM) | relative viability ([3]; first compound 0.08 µM) | relative viability ([3]; first compound 0.253 µM) | relative viability ([3]; first compound 0.8 µM) | relative viability ([3]; first compound 2.53 µM) | relative viability ([3]; first compound 8 µM) | relative viability ([4]; first compound 0.08 µM) | relative viability ([4]; first compound 0.253 µM) | relative viability ([4]; first compound 0.8 µM) | relative viability ([4]; first compound 2.53 µM) | relative viability ([4]; first compound 8 µM)
1 | LU99A | 1.16 | 1.07 | 1.03 | 0.834 | 0.803 | 0.662 | 0.519 | 0.515 | 0.55 | 0.522 | 0.726 | 0.514 | 0.505 | 0.428 | 0.425 | 0.168 | 0.172 | 0.124 | 0.182 | 0.217
2 | NCI-H647 | 1.04 | 1.07 | 1.11 | 0.876 | 0.818 | 1.1 | 1.1 | 1.05 | 1.15 | 0.825 | 0.249 | 0.268 | 0.181 | 0.152 | 0.15 | 0.195 | 0.216 | 0.181 | 0.158 | 0.198
3 | A-427 | 1.07 | 1.08 | 1.04 | 0.921 | 1.01 | 0.905 | 0.701 | 0.776 | 0.746 | 0.636 | 0.742 | 0.614 | 0.661 | 0.686 | 0.575 | 1.01 | 0.96 | 1.04 | 0.881 | 0.95
4 | COR-L 105 | 0.349 | 0.393 | 0.34 | 0.417 | 0.381 | 0.817 | 0.962 | 0.82 | 0.969 | 0.726 | 0.373 | 0.419 | 0.343 | 0.377 | 0.326 | 1.13 | 1.06 | 0.883 | 1.11 | 1.07
5 | NCI-H2126 | 0.796 | 0.757 | 0.765 | 0.676 | 0.734 | 1.04 | 1.02 | 0.965 | 1.05 | 1.08 | 0.656 | 0.631 | 0.599 | 0.624 | 0.589 | 0.713 | 0.73 | 0.758 | 0.687 | 0.619
6 | NCI-H460 | 0.891 | 0.933 | 1.13 | 1 | 0.954 | 1.01 | 0.872 | 1.12 | 0.808 | 0.67 | 0.659 | 0.513 | 0.531 | 0.45 | 0.496 | 0.06 | 0.0695 | 0.065 | 0.0681 | 0.0901
7 | SK-LU-1 | 0.932 | 0.862 | 0.817 | 0.64 | 0.613 | 1.13 | 0.997 | 0.963 | 0.763 | 0.557 | 0.192 | 0.19 | 0.172 | 0.197 | 0.195 | 1.03 | 1 | 1.06 | 0.962 | 0.714
8 | NCI-H322M | 0.575 | 0.604 | 0.601 | 0.57 | 0.489 | 0.796 | 0.968 | 0.957 | 0.819 | 0.843 | 0.272 | 0.27 | 0.265 | 0.238 | 0.242 | 0.598 | 0.611 | 0.628 | 0.461 | 0.666
9 | EKVX | 0.284 | 0.182 | 0.204 | 0.202 | 0.171 | 0.893 | 0.933 | 0.894 | 0.899 | 0.894 | 0.468 | 0.519 | 0.549 | 0.533 | 0.406 | 0.295 | 0.432 | 0.406 | 0.391 | 0.375
10 | NCI-H1734 | 1.1 | 1.32 | 1.03 | 0.982 | 1.02 | 0.647 | 0.601 | 0.589 | 0.681 | 0.51 | 0.474 | 0.466 | 0.43 | 0.419 | 0.401 | 0.425 | 0.426 | 0.435 | 0.388 | 0.417
11 | NCI-H520 | 0.899 | 0.85 | 1.02 | 0.718 | 0.886 | 0.719 | 0.675 | 0.809 | 0.742 | 0.747 | 0.209 | 0.208 | 0.187 | 0.168 | 0.194 | 0.709 | 0.714 | 0.671 | 0.565 | 0.65
12 | EPLC-272H | 1.03 | 0.982 | 1.05 | 0.732 | 0.797 | 0.939 | 0.862 | 0.752 | 0.943 | 0.656 | 0.467 | 0.324 | 0.333 | 0.421 | 0.234 | 0.373 | 0.364 | 0.374 | 0.319 | 0.323
13 | UMC-11 | 1.08 | 1.04 | 1.13 | 0.848 | 0.79 | 0.577 | 0.538 | 0.504 | 0.637 | 0.335 | 0.438 | 0.452 | 0.481 | 0.421 | 0.382 | 0.773 | 0.728 | 0.757 | 0.757 | 0.707
14 | NCI-H1792 | 0.894 | 0.916 | 0.86 | 0.925 | 0.853 | 0.975 | 0.898 | 0.932 | 0.971 | 0.968 | 0.771 | 0.787 | 0.753 | 0.762 | 0.906 | 0.882 | 0.9 | 0.81 | 0.757 | 0.857
15 | NCI-H1993 | 0.896 | 0.775 | 0.841 | 0.793 | 0.746 | 0.954 | 0.858 | 0.982 | 0.815 | 0.776 | 0.767 | 0.621 | 0.521 | 0.553 | 0.568 | 0.562 | 0.554 | 0.637 | 0.586 | 0.596
